From patent US20090264379A1, “Stable aqueous solution of a polyene fungicide” (DSM IP ASSETS B.V., priority 2003, published 2009)

Tests used:
[1] = Rest activity (stability) of completely dissolved natamycin in aqueous SDS solution over time, HPLC; format: physicochemical; settings: 1000 ppm natamycin added, 1% SDS
Procedure: This method was used to analyze the amount of
active natamycin in a water-based mixture of several components. The method was HPLC based using the International Dairy Federation (Provisional ADF Standard 140, 1987) with a Lichrosorb RP 8 column. Detection was by UV at 303 nm with a range of 0.1-4 mg/L with an injection volume of 20 μl. Sample preparation was carried out by weighing 2 gram prepared formulation with an accuracy of 1 mgram in a measuring flask. 4 ml demineralized water (demiwater) was added and the mixture was stirred for 15 minutes to get a homogeneous suspension. Subsequently 80 ml ethanol was added and the mixture was stirred for 10 minutes. After ultrasonic treatment the solution was filled up to 100 ml with de-minaralized water and then diluted and/or filtered (0.2 μm) before injecting. The amount of active natamycin was calculated as ppm against a series of standards of known natamycin concentrations.
The mixtures were made by adding 2 gram Delvocid (Natamycin) together with 50 gram 20% SDS solution and eventually additives to a final weight of 1000 gram with demineralised (=demi) water.
This crude mixture was mixed for 5 minutes to obtain a homogeneous mixture and accordingly adjusted to pH 4-6 with ammonia.
The obtained formulations with an added amount of active natamycin of 1000 ppm were stored at 18° C. in a closed pot in the dark.
The prepared mixtures were measured over time for the amount of active natamycin using the analytical method as described hereinabove.
The mixture as described in Example 1 was adjusted to pH=4.0 or pH=6.0 and the natamycin activity was measured over time.
The mixture as described in Example 1 is combined with 1000 ppm di-sodium-EDTA, adjusted to pH 6.0 and the natamycin activity was measured over time.

[2] = Visual solubility of polyene fungicides in water and water + SDS; format: physicochemical; settings: soluble if mixture is clear
Procedure: Mixtures are made with several polyene fungicides in several concentrations The used polyene fungicides are nystatin, amphotericin and natamycin. The solubility rate is measured visually of the polyene fungicides in demineralized water as such or according to example 1 in combination with SDS to a final SDS concentration of 1% (w/w). It is soluble if a mixture is clear after one minute stirring at room temperature.

For `C[C@@H]1C/C=C/C=C/C=C/C=C/[C@H](O[C@@H]2O[C@H](C)[C@@H](O)[C@H](N)[C@@H]2O)C[C@@H]2O[C@](O)(C[C@@H](O)C[C@H]3O[C@@H]3/C=C/C(=O)O1)C[C@H](O)[C@H]2C(=O)O` [Natamycin, natamycin], the “Rest activity of completely dissolved natamycin over time” value (“Rest activity … over time” for short) ([1]; pH = 4.0, 3 weeks, stored at 18° C. in the dark) was <0.1 ppm, the “Rest activity … over time” value ([1]; pH = 4.0, 9 weeks, stored at 18° C. in the dark) was <0.1 ppm and the “Rest activity … over time” value ([1]; pH = 4.0, 1 day, stored at 18° C. in the dark) was 672 ppm. For the same compound, the “Rest activity … over time” value ([1]; pH = 6.0 + Na2EDTA (1000 ppm di-sodium-EDTA), 3 weeks, 18° C. dark) was 805 ppm, the “Rest activity … over time” value ([1]; pH = 6.0 + Na2EDTA (1000 ppm di-sodium-EDTA), 9 weeks, 18° C. dark) was 560 ppm and the “Rest activity … over time” value ([1]; pH = 6.0 + Na2EDTA (1000 ppm di-sodium-EDTA), 1 day, 18° C. dark) was 1000 ppm. The “Rest activity … over time” value ([1]; pH = 6.0, 3 weeks, stored at 18° C. in the dark) was 444 ppm, the “Rest activity … over time” value ([1]; pH = 6.0, 9 weeks, stored at 18° C. in the dark) was 57 ppm and the “Rest activity … over time” value ([1]; pH = 6.0, 1 day, stored at 18° C. in the dark) was 988 ppm.
For `C[C@@H]1[C@H](O)[C@@H](C)/C=C/C=C/CC/C=C/C=C/C=C/C=C/C(O[C@H]2O[C@H](C)[C@@H](O)[C@H](N)[C@@H]2O)CC2O[C@](O)(CC(O)C(O)CCC(O)CC(O)CC(O)CC(=O)O[C@H]1C)CC(O)C2C(=O)O` (stereo partly shown) [Nystatin], the “Solublized after 1 minute stirring at room temperature” value (“Solublized after 1 minute stirring” below) ([2]; 250 ppm polyene fungicide in final mixture, solvent 1% (w/w) SDS) was “Yes”, the “Solublized after 1 minute stirring” value ([2]; 250 ppm polyene fungicide in final mixture, solvent Demi-Water) was “No” and the “Solublized after 1 minute stirring” value ([2]; 500 ppm polyene fungicide in final mixture, solvent 1% (w/w) SDS) was “Almost”. The “Solublized after 1 minute stirring” value ([2]; 1000 ppm polyene fungicide in final mixture, solvent 1% (w/w) SDS) was “No”.
